# ChEMBL document CHEMBL1153512, “Anti-HBV and cytotoxic activities of pyranocoumarin derivatives” (Bioorg Med Chem, 2009)
# Assays:
# Hepatitis B virus [1] = experiment: Antiviral activity against Hepatitis B virus infected in human […] cells assessed as suppression of viral surface antigen production after 48 hrs by enzyme immunoassay; type: functional, organism-based
# A549 = experiment: Cytotoxicity against human A549 cells after 3 days by sulforhodamine B assay; type: functional, cell-based; conditions: A549, 72 h
# MCF7 = experiment: Cytotoxicity against human MCF7 cells after 3 days by sulforhodamine B assay; type: functional, cell-based; conditions: MCF7, 72 h
# KB = experiment: Cytotoxicity against human KB cells after 3 days by sulforhodamine B assay; type: functional, cell-based; conditions: 72 h
# [2] = Cytotoxicity against human KBVIN cells after 3 days by sulforhodamine B assay; type: functional, cell-based; conditions: 72 h
# Hepatitis B virus [3] = experiment: Antiviral activity against Hepatitis B virus infected in human […] cells assessed as suppression of viral surface antigen production upto 15 uM after 48 hrs by enzyme immunoassay; type: functional, organism-based
EC50 (Hepatitis B virus [1]) [µM],EC50 (Hepatitis B virus [3]),Compound,EC50 (A549) [mg/L],EC50 (MCF7) [mg/L],EC50 (KB) [mg/L],EC50 [2] [mg/L]
1.14,,CCC(C)(C)c1c2c(c(O)c3ccc(=O)oc13)C(=O)CC(C)(C)O2,19.7,> 20,19.5,2.87
,Not Active,COc1c2c(c(C(C)(C)C3CO3)c3oc(=O)ccc13)OC(C)(C)CC2=O (stereo not given),,,,
1.63,,CCC(C)(C)c1c2c(c(OC)c3ccc(=O)oc13)CCC(C)(C)O2,> 20,> 20,11.5,10.2
,Not Active,CC1(C)CC(=O)c2c(c(C(C)(C)C3CO3)c3oc(=O)ccc3c2O)O1 (stereo not given),> 20,> 20,> 20,2.71
,Not Active,COc1c2c(c(C(C)(C)C3CO3)c3oc(=O)c(C(C)(C)C4CO4)cc13)OC(C)(C)C1OC21 (stereo not given),,,,
,Not Active,COc1c2c(c(C(C)(C)C3CO3)c3oc(=O)ccc13)OC(C)(C)C1OC21 (stereo not given),,,,
5.5,,C=CC(C)(C)c1c2c(c(OC)c3ccc(=O)oc13)C1OC1C(C)(C)O2 (stereo not given),,,,
11.2,,C=CC(C)(C)c1c2c(c(OC)c3ccc(=O)oc13)C(=O)CC(C)(C)O2,,,,
1.34,,CCC(C)(C)c1c2c(c(O)c3ccc(=O)oc13)CCC(C)(C)O2,8.84,16.3,9.25,9.11
5.35,,CCC(C)(C)c1c2c(c(OC)c3ccc(=O)oc13)C(=O)CC(C)(C)O2,> 20,> 20,> 20,13
6.38,,C=CC(C)(C)c1c2c(c(O)c3ccc(=O)oc13)C=CC(C)(C)O2 [NORDENTATIN],8.7,17.3,9.63,9.96

# Second part, the molecule before the results:
Compound,EC50 (Hepatitis B virus [1]) [µM],EC50 (Hepatitis B virus [3]),EC50 (A549) [mg/L],EC50 (MCF7) [mg/L],EC50 (KB) [mg/L],EC50 [2] [mg/L]
CCC(C)(C)c1cc2c(OC)c3c(c(C(C)(C)CC)c2oc1=O)OC(C)(C)CC3,6.6,,,,,
C=CC(C)(C)c1cc2c(OC)c3c(c(C(C)(C)C=C)c2oc1=O)OC(C)(C)C=C3,,Not Active,,,,
CCC(C)(C)c1cc2c(O)c3c(c(C(C)(C)CC)c2oc1=O)OC(C)(C)CC3,,Not Active,12.2,17.7,8.21,7.73
C=CC(C)(C)c1cc2c(OC)c3c(c(C(C)(C)C=C)c2oc1=O)OC(C)(C)C1OC31 (stereo not given),4.56,,11.8,11.4,6.5,6.12
COc1c2c(cc3oc(=O)ccc13)OC(C)(C)CC2,,Not Active,,,,
COc1c2c(cc3oc(=O)ccc13)OC(C)(C)C1OC21 (stereo not given),,Not Active,,,,
C=CC(C)(C)c1cc2c(O)c3c(c(C(C)(C)C=C)c2oc1=O)OC(C)(C)C=C3 [CLAUSARIN],,Not Active,2.98,7.96,1.61,1.59
C=CC(C)(C)c1c2c(c(OC)c3ccc(=O)oc13)C=CC(C)(C)O2 [DENTATIN],1.64,,> 20,> 20,13.3,14.7
COc1c2c(cc3oc(=O)ccc13)OC(C)(C)C=C2 [XANTHOXYLETIN],,Not Active,,,,
